In patent US12122756B2, “Biflavone compound against I-type herpes simplex virus, and preparation method therefor and use thereof” (priority 2022, dated 2024):
Marks after values point to notes of the source that are not given here.

Experiments:
[1] = test system: Vero cells; assay: Cytotoxic assay of tested drugs against Vero cells (CCK-8); assay type: cell-based, African green monkey
Description: 3. Cytotoxic assay of tested drugs against Vero cells: Vero cells were seed in a 96 well plate at 3×10^4 cells/well. The next day, after growing into a monolayer, the test drug was diluted to obtain 8-9 concentrations and added to each well. Meanwhile, a normal control group was established, with 4 replicate wells for each group. After 72 hours, the toxicity of the test drug to Vero cells was measured using CCK-8 assay, and the highest non-toxic concentration and half toxic concentration (TC50) of the drug on the cells were calculated.

[2] = test system: HSV-I; assay: Action mode: inhibitory effect on HSV-I replication (CPE, CCK-8); assay type: cell-based, Herpes simplex virus type I
Description: (2) The inhibitory effect of drugs on HSV-I replication: Vero cells were seeded in a 96-well plate and grew into a monolayer, before adding HSV-I virus solution at 100 μl/well, followed by incubation for 1 hour. Then, the cell maintenance solution containing different concentrations of sample was replaced, and the cells were further cultured. After 72 hours, the effect on the replication of virus was determined using the CCK-8 method.

[3] = test system: HSV-I; assay: Action mode: inhibitory effect on HSV-I adsorption (CPE, CCK-8); assay type: cell-based, Herpes simplex virus type I
Description: (1) The inhibitory effect of drugs on HSV-I adsorption: Vero cells were seeded in a 96-well plate and grew into a monolayer, before pretreatment with different concentrations of samples. Then, HSV-I virus solution was added at 100 μl/well, followed by incubation for 1 hour. Finally, the cell maintenance solution was replaced, and the cells were further cultured. After 72 hours, the effect on the adsorption of virus was determined using the CCK-8 method.

[4] = test system: HSV-I viral keratitis; assay: HSV-I viral keratitis model in mice, eye drops; assay type: in vivo
Excerpt: 8-week-old C57 mice (25 mice, weighing 22 g-25 g) were used to establish HSV-I viral keratitis models in their right eyes. During the modeling process, ster[…] needles were used to make #-shaped/*-shaped/parallel scratches on the cornea of all animals' right eyes. The depth of the scratches must be in the superficial layer, and could not penetrate the stroma. The depth of the scratches for each eye was moderately uniform, and the scratches were evenly distributed, and then a fiber syringe was used to drop 4 μl of HSV-I virus solution mixed well (titer: 2.0×10^6 PFU/ml), to finish modeling. After 1 day of modeling, the right eye of the animal was scored for HSV-I viral keratitis, and 20 mice with successful and uniform modeling were selected for inclusion in the experiment, which were randomly divided into two groups: a modeling group (Ctrl) and a di-XYW compound group, with 10 mice in one group. The surface of the right eye of the animal was treated with a corresponding solvent (Ctrl group, with physiological saline as the solvent) or a di-XYW compound at a concentration of 500 μg/ml (using physiological saline as the solvent), by administering every other day. On the day of administration, each eye should be administrated 5 times, 10 μl for each time, for 2 weeks. The pathological change of keratitis was scored before eye drops (Day 0) and on days 1, 3, 7, and 14 after eye drops (that was summarized as clinical scores, with scoring criteria shown in Table 7), followed by analysis and comparison. [table]

[5] = test system: HSV-I; assay: Cytopathic effect (CPE) assay: inhibition of pathological changes of Vero cells induced by HSV-I (CCK-8); assay type: cell-based, Herpes simplex virus type I
Description: (1) Determination of the inhibitory activities of the test drugs on pathological changes of Vero cells induced by HSV-I using the cytopathic effect (CPE) assay: Vero cells were seeded in a 96-well plate and grew into a monolayer the next day. 100TCID50 HSV-I was added to infect cells, and then the cell maintenance solution containing different concentrations of the test drug was replaced, and a cell control group was included. The cells were cultured in an incubator for 72 hours. Then, the inhibitory effect of the drug on virus-induced cytopathic changes was measured using the CCK-8 assay, and thus the 50% inhibiting concentration (IC50) of the drug was calculated.

COc1c(O)c(Cc2c(O)c(OC)c(O)c3c(=O)c(-c4ccc(O)c(S(=O)(=O)[O-])c4)coc23)c2occ(-c3ccc(O)c(S(=O)(=O)[O-])c3)c(=O)c2c1O.[Na+].[Na+] [Compound 2, 8,8″-methylene-di-(sodiumtectorigenin-5′-sulphonate)]
growth inhibition rate (%) on Vero cells ([1]; 1st (highest) concentration (971, 1600, 2620, 390 μg·ml^−1 for Compounds 1-4), 72 h): 41.92** %
growth inhibition rate (%) on Vero cells ([1]; 2nd concentration, 50% serial dilution from column-head concentration, 72 h): 29.02** %
growth inhibition rate (%) on Vero cells ([1]; 3rd concentration, 50% serial dilution from column-head concentration, 72 h): 11.69** %
growth inhibition rate (%) on Vero cells ([1]; 4th concentration, 50% serial dilution from column-head concentration, 72 h): −4.55%
growth inhibition rate (%) on Vero cells ([1]; 5th concentration, 50% serial dilution from column-head concentration, 72 h): 5.46%
growth inhibition rate (%) on Vero cells ([1]; 6th concentration, 50% serial dilution from column-head concentration, 72 h): −4.74%
growth inhibition rate (%) on Vero cells ([1]; 7th concentration, 50% serial dilution from column-head concentration, 72 h): −12.11%
growth inhibition rate (%) on Vero cells ([1]; 8th concentration, 50% serial dilution from column-head concentration, 72 h): −8.20%
growth inhibition rate (%) on Vero cells ([1]; 9th concentration, 50% serial dilution from column-head concentration, 72 h): −13.88%
TC50 on Vero cells ([1]; 72 h, CCK-8, Probit regression): 1749.982 µg/mL
toxicity (in words) ([1]; Vero cells): lower toxicity
TC50 ([1]; Vero cells (Table 5)): 1749.982 µg/mL
highest non-toxic concentration ([1]; Vero cells, 72 h, CCK-8): 382.804 µg/mL
Effect on viral replication: OD value ([2]; 5.97 μg/ml, n = 6): 0.33 ± 0.05
Effect on viral replication: OD value ([2]; 11.94 μg/ml, n = 6): 0.36 ± 0.07
Effect on viral replication: OD value ([2]; 23.88 μg/ml, n = 6): 0.62 ± 0.05
Effect on viral replication: OD value ([2]; 47.45 μg/ml, n = 6): 0.80 ± 0.05
Effect on viral replication: OD value ([2]; 95.50 μg/ml, n = 6): 0.97 ± 0.09
Effect on viral replication: OD value ([2]; 191.00 μg/ml, n = 6): 0.98 ± 0.12
Effect on viral replication: OD value ([2]; 382.00 μg/ml, n = 6): 0.99 ± 0.02
effect on viral replication (in words) ([2]; CPE method): significant effect
inhibition at 5.97 µg/mL ([2]; Human alphaherpesvirus 1, 5.97 μg/ml, n = 6, read-out: Effect on viral replication: Inhibition rate (%)): 13.1%
inhibition at 11.94 µg/mL ([2]; Human alphaherpesvirus 1, 11.94 μg/ml, n = 6, read-out: Effect on viral replication: Inhibition rate (%)): 17.6%
inhibition at 23.88 µg/mL ([2]; Human alphaherpesvirus 1, 23.88 μg/ml, n = 6, read-out: Effect on viral replication: Inhibition rate (%)): 50.5%
inhibition at 47.45 µg/mL ([2]; Human alphaherpesvirus 1, 47.45 μg/ml, n = 6, read-out: Effect on viral replication: Inhibition rate (%)): 73.8%
inhibition at 95.5 µg/mL ([2]; Human alphaherpesvirus 1, 95.50 μg/ml, n = 6, read-out: Effect on viral replication: Inhibition rate (%)): 96.2%
inhibition at 191 µg/mL ([2]; Human alphaherpesvirus 1, 191.00 μg/ml, n = 6, read-out: Effect on viral replication: Inhibition rate (%)): 98%
inhibition at 382 µg/mL ([2]; Human alphaherpesvirus 1, 382.00 μg/ml, n = 6, read-out: Effect on viral replication: Inhibition rate (%)): 98.8%
Effect on viral adsorption: OD value ([3]; 5.97 μg/ml, n = 6): 0.24 ± 0.03
Effect on viral adsorption: OD value ([3]; 11.94 μg/ml, n = 6): 0.23 ± 0.05
Effect on viral adsorption: OD value ([3]; 23.88 μg/ml, n = 6): 0.24 ± 0.04
Effect on viral adsorption: OD value ([3]; 47.45 μg/ml, n = 6): 0.25 ± 0.04
Effect on viral adsorption: OD value ([3]; 95.50 μg/ml, n = 6): 0.26 ± 0.06
Effect on viral adsorption: OD value ([3]; 191.00 μg/ml, n = 6): 0.25 ± 0.06
Effect on viral adsorption: OD value ([3]; 382.00 μg/ml, n = 6): 0.24 ± 0.06
inhibitory effect on viral adsorption (in words) ([3]; CPE method): almost no inhibitory effect
inhibition at 5.97 µg/mL ([3]; Human alphaherpesvirus 1, 5.97 μg/ml, n = 6, read-out: Effect on viral adsorption: Inhibition rate (%)): 4.97%
inhibition at 11.94 µg/mL ([3]; Human alphaherpesvirus 1, 11.94 μg/ml, n = 6, read-out: Effect on viral adsorption: Inhibition rate (%)): 4.83%
inhibition at 23.88 µg/mL ([3]; Human alphaherpesvirus 1, 23.88 μg/ml, n = 6, read-out: Effect on viral adsorption: Inhibition rate (%)): 5.22%
inhibition at 47.45 µg/mL ([3]; Human alphaherpesvirus 1, 47.45 μg/ml, n = 6, read-out: Effect on viral adsorption: Inhibition rate (%)): 6.97%
inhibition at 95.5 µg/mL ([3]; Human alphaherpesvirus 1, 95.50 μg/ml, n = 6, read-out: Effect on viral adsorption: Inhibition rate (%)): 7.33%
inhibition at 191 µg/mL ([3]; Human alphaherpesvirus 1, 191.00 μg/ml, n = 6, read-out: Effect on viral adsorption: Inhibition rate (%)): 6.16%
inhibition at 382 µg/mL ([3]; Human alphaherpesvirus 1, 382.00 μg/ml, n = 6, read-out: Effect on viral adsorption: Inhibition rate (%)): 5.39%
keratitis pathological changes and clinical score changes compared to model control group (Ctrl) ([4]; C57 mice, after 1 and 2 weeks of eye drops at 500 μg/ml, *P<0.05): statistically significant differences
therapeutic effect on HSV-I viral keratitis (in words) ([4]; C57 mice, eye drops 500 μg/ml, every other day, 5 x 10 μl per day, 2 weeks): good therapeutic effect
inhibition of pathological changes of HSV-I viral keratitis (in words) ([4]; mice, eye drops): effectively inhibit
Average optical density (OD) ([5]; 5.97 μg/ml, n = 6): 0.33 ± 0.04
Average optical density (OD) ([5]; 11.94 μg/ml, n = 6): 0.35 ± 0.05
Average optical density (OD) ([5]; 23.88 μg/ml, n = 6): 0.44 ± 0.07
Average optical density (OD) ([5]; 47.75 μg/ml, n = 6): 0.65 ± 0.06
Average optical density (OD) ([5]; 95.50 μg/ml, n = 6): 0.95 ± 0.04
Average optical density (OD) ([5]; 191.00 μg/ml, n = 6): 1.06 ± 0.05
Average optical density (OD) ([5]; 382.00 μg/ml, n = 6): 1.10 ± 0.03
inhibitory effect on HSV-I induced cytopathic changes (in words) ([5]; CPE method): significant inhibitory effect
inhibition at 5.97 µg/mL ([5]; Human alphaherpesvirus 1, Vero, 5.97 μg/ml, n = 6, read-out: Inhibition rate (%)): -0.36%
inhibition at 11.94 µg/mL ([5]; Human alphaherpesvirus 1, Vero, 11.94 μg/ml, n = 6, read-out: Inhibition rate (%)): 2.87%
inhibition at 23.88 µg/mL ([5]; Human alphaherpesvirus 1, Vero, 23.88 μg/ml, n = 6, read-out: Inhibition rate (%)): 14.5%
inhibition at 47.75 µg/mL ([5]; Human alphaherpesvirus 1, Vero, 47.75 μg/ml, n = 6, read-out: Inhibition rate (%)): 40.7%
inhibition at 95.5 µg/mL ([5]; Human alphaherpesvirus 1, Vero, 95.50 μg/ml, n = 6, read-out: Inhibition rate (%)): 79.9%
inhibition at 191 µg/mL ([5]; Human alphaherpesvirus 1, Vero, 191.00 μg/ml, n = 6, read-out: Inhibition rate (%)): 94%
inhibition at 382 µg/mL ([5]; Human alphaherpesvirus 1, Vero, 382.00 μg/ml, n = 6, read-out: Inhibition rate (%)): 99.2%
IC50 ([5]; Human alphaherpesvirus 1, against HSV-I in Vero cells, Probit regression): 54.5 µg/mL
SI (selection index = TC50/IC50) ([5]; TC50 on Vero cells / IC50 against HSV-I): 32.117
